{
  "source": "patent US4690933A",
  "about": "“Pyridylvinyl-1H tetrazole having antihistamine activity” (priority 1984, dated 1987)",
  "key": {"[1]": {"conditions": "background statement, no test described; cited from earlier work"}, "[2]": {"biological_target": "T1, histamine; longitudinal muscle from the intact ileum of guinea-pigs (Cavia porcellus, UniProt P31389)", "T1 construct": "The longitudinal muscle was isolated from the intact ileum of guinea-pigs; from tissue; host or cells: longitudinal muscle of the ileum of guinea-pigs (Harley, male 250-400 g)", "T1 sequence (P31389 whole entry)": "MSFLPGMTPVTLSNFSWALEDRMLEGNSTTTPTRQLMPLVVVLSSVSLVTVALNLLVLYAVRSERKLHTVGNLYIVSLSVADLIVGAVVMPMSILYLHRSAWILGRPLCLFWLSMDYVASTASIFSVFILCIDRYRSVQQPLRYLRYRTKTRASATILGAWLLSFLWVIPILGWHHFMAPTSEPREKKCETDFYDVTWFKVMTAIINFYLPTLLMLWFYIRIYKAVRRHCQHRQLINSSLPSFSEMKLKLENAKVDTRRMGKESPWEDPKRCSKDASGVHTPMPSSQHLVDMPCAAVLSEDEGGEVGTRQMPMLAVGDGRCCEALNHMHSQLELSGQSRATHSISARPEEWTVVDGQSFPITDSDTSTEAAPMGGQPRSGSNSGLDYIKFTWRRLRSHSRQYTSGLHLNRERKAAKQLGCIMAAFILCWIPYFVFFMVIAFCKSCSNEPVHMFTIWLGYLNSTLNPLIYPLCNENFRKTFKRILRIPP", "assay": "In vitro antihistaminic activity: histamine concentration-response curves, isolated guinea-pig ileum longitudinal muscle (Schild plot)", "type": "cell-based", "conditions": "negative log of the concentration of antagonist which shifts the control histamine concentration-response curve 2X to the right, one hour incubation with test compound, 60 min", "protocol": "A.Invitro antihistaminic activity: The longitudinal muscle was isolated from the intact ileum of guinea-pigs (Harley, male 250-400 g) and placed in an organ bath under 300 mg tension. After one hour of equilibration, cumulative concentration-response curves (Van Rossum, J. M., Arch. Int. Pharmacodyn. Ther. 143 299-330, 1963) to histamine wee obtained. Following washing, the tissues were incubated for one hour with the test compound and then a second histamine concentration-response curve was run. Shifts to the right of the agonist concentration-response curve produced by the antagonists were used to construct Schild plots (Arunlakshana, O. and Schild, H. O., Br. J. Pharmacol: 14, 48-58, 1959). Regression of Log (dr-1) on Log/B/, where dr is an equiactive response in the presence and absence of antagonist and /B/ is the molar concentration of antagonist, allowed an estimate of pA2, i.e. the negative log of the concentration of antagonist which shifts the control histamine concentration-response curve 2X to the right.\nThe antihistaminic activities of compounds of the present invention are detailed in table A below."}, "[3]": {"conditions": "cited from earlier work"}, "[4]": {"conditions": "cited from earlier work", "remark": "listed apart in the source"}},
  "note": "Where two headings read alike, the source gives them in different places.",
  "data": [
    {"smiles": "O=C(O)c1ccc(/C(=C\\CN2CCCC2)c2ccccn2)cc1", "note": "[(E)-1-(4-carboxyphenyl)-1-(2-pyridyl)-3-pyrrolidinoprop-1-ene]", "values": [
      {"measurement": "antihistamine activity", "setting": "[1]", "result": "little or no antihistamine activity"}
    ]},
    {"smiles": "Cc1ccc(/C(=C\\CN2CCCC2)c2cccc(/C=C/c3nnn[nH]3)n2)cc1", "note": "[Example 1, 5-(E-6-[3-Pyrrolidino-1-(4-tolyl)prop-1E-enyl]-2-pyridylvinyl)-1H-tetrazole]", "values": [
      {"measurement": "pA2", "setting": "[2]", "result": 8.7}
    ]},
    {"smiles": "O=S(=O)(O)c1cccc(/C(=C/CN2CCCC2)c2ccccc2)c1", "note": "[Example 2, (E)-3-(1-phenyl-3-pyrrolidinoprop-1-enyl)-benzenesulphonic Acid]", "values": [
      {"measurement": "pA2", "setting": "[2]", "result": 7.1}
    ]},
    {"smiles": "O=S(=O)(O)c1cccc(C(CCN2CCCC2)c2ccccc2)c1", "note": "(stereo not drawn) [Example 3, 3-(1-phenyl-3-pyrrolidinopropyl)benzenesulphonic acid]", "values": [
      {"measurement": "pA2", "setting": "[2]", "result": 7.3}
    ]},
    {"smiles": "CC(CN1c2ccccc2Sc2ccccc21)N(C)C", "note": "(stereo not drawn) [promethazine]", "values": [
      {"measurement": "sedation or drowsiness", "setting": "[3]; in some patients", "result": "cause sedation or drowsiness in some patients"}
    ]},
    {"smiles": "COc1ccc(CN(CCN(C)C)c2ccccn2)cc1", "note": "[pyrilamine]", "values": [
      {"measurement": "sedation or drowsiness", "setting": "[3]; human, in vivo", "result": "cause sedation or drowsiness in some patients"}
    ]},
    {"smiles": "Cc1ccc(/C(=C\\CN2CCCC2)c2ccccn2)cc1", "note": "[triprolidine, (E)-1-(4-methylphenyl)-1-(2-pyridyl)-3-pyrrolidinoprop-1-ene]", "values": [
      {"measurement": "sedation or drowsiness", "setting": "[3]; human, in vivo", "result": "cause sedation or drowsiness in some patients"},
      {"measurement": "metabolism in man", "setting": "[4]", "result": "metabolized in man to (E)-1-(4-carboxyphenyl)-1-(2-pyridyl)-3-pyrrolidinoprop-1-ene"},
      {"measurement": "antihistamine activity", "setting": "[1]", "result": "one of the most potent antihistamines available"}
    ]}
  ]
}
